The source of these data is publication PMC5673888, “Crystal structure of tripartite-type ABC transporter MacB from Acinetobacter baumannii” (Nature Communications, 2017).

The target in one test is T1, MacB (Acinetobacter baumannii, UniProt A0A0D8G707).
T1 construct: full length (664 residues inferred: stop at Leu655 removes C-terminal 10), N-terminal His6 tag, E. coli BL21(DE3), UDM-solubilized homodimer
Put plainly: X-ray crystal structure of complex ([…] Å). Conditions: co-crystallized with 10 mM ADPβS, 2 mM MgCl2; composite nucleotide-binding sites at NBD dimer interface.

Test [1] deals with MacB from Acinetobacter baumannii (Acinetobacter baumannii). The test can be described thus: crystal structure; MacB in 0.05% UDM, 10 mM ADPβS and 2 mM MgCl2 added; sitting drop vapour diffusion at 25 °C, 1.2–1.3 M sodium citrate, 100 mM Na-HEPES pH 7.2; Se-Met crystal with 2 mM ATP instead of ADPβS; 3.4 Å.

As a reminder, the stoichiometry N is a count of units in the complex or per binding partner.

Take `Nc1ncnc2c1ncn2[C@@H]1O[C@H](COP(=O)(O)OP(=O)(O)S)[C@@H](O)[C@H]1O` (some centres unmarked) [ADPβS]: the “X-ray crystal structure of complex (3.4 Å)” value on MacB was “MacB was crystallized in the presence of adenosine-5′-(β-thio)-diphosphate (ADPβS)”.

Regarding “MacB from Acinetobacter baumannii (from UniProt A0A0D8G707 1-664) (natural protein)”, the stoichiometry N in test [1] turned out to be 2.
